Experimental data reported in patent publication US12692269B2, “Therapeutic compounds” (Genentech, Inc., priority 2019, dated 2026).

Legend:
Type in all cases: binding
[1] = target: TEAD2 TAZ (amino acids 13-57) (Homo sapiens, UniProt Q15562); test: TEAD2-TAZ HTRF (TR-FRET) protein-protein interaction assay; conditions: for TEAD2 TAZ HTRF combined: Max % Inhibition: TEAD2, TAZ peptide; for EC50: TEAD2-TAZ HTRF, TR-FRET 665 nm/615 nm, read-out: TEAD2 TAZ HTRF combined: EC50
Experimental: (§1) Purified His-tagged TEAD protein (YAP Binding Domain, amino acids 217-447) is pre-incubated with Europium labelled anti-His antibody tracer (Perkin Elmer Cat #AD0110). Small molecule Inhibitors are then incubated with the TEAD-Eu protein complex for 30 minutes to allow for binding to TEAD protein. Biotinylated YAP peptide for TEAD-YAP assays (AA's 50-100) or biotinylated TAZ peptide for TEAD-TAZ assays (AA's 13-57) that has been pre-incubated with streptavidin-xl665 acceptor (CIS-Bio Cat #610SAXAC) or is added to the compound-TEAD mix. The TEAD-YAP-inhibitor mixture is then incubated for 60 minutes at room temperature. All reactions are carried out in a polystyrene plate. After 60 minutes, the plate is read on a plate reader using TR-FRET mode with wavelengths of 665 nm/615 nm. If YAP or TAZ binds to TEAD as expected, a TR-FRET signal results from the proximity of YAP or TAZ and TEAD after binding. If an inhibitor such as peptide 17 (Selleckchem Cat #58164) interferes with YAP-TEAD or TAZ-TEAD binding, the disruption of the YAP or TAZ:TEAD interaction results in a decrease in TR-FRET signal. The potency of compounds as YAP:TEAD or TAZ:TEAD protein-protein interaction (PPi) inhibitors is determined by an IC50 or EC50 value generated using a non-linear four parameter curve fit.

TEAD1 YAP50-100 = TEAD1 YAP50-100 (Homo sapiens, UniProt P28347); test: TEAD1-YAP HTRF (TR-FRET) protein-protein interaction assay; conditions: TEAD1, YAP peptide 50-100, HTRF; for EC50: read-out: TEAD1 YAP50-100 HTRF combined: EC50
Sequence of TEAD1 YAP50-100 (P28347 167-426 limits assumed): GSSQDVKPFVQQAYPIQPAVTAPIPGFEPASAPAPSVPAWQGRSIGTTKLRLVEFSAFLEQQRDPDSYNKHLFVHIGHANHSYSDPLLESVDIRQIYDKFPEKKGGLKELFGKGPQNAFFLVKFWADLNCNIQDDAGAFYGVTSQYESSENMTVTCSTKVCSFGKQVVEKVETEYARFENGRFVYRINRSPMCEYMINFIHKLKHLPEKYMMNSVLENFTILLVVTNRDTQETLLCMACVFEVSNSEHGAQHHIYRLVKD
Experimental: as §1

TEAD3 YAP50-100 = TEAD3 YAP50-100 (Homo sapiens, UniProt Q99594); test: TEAD3-YAP HTRF (TR-FRET) protein-protein interaction assay; conditions: TEAD3, YAP peptide 50-100, HTRF; for EC50: read-out: TEAD3 YAP50-100 HTRF combined: EC50
Sequence of TEAD3 YAP50-100 (Q99594 173-435 limits assumed): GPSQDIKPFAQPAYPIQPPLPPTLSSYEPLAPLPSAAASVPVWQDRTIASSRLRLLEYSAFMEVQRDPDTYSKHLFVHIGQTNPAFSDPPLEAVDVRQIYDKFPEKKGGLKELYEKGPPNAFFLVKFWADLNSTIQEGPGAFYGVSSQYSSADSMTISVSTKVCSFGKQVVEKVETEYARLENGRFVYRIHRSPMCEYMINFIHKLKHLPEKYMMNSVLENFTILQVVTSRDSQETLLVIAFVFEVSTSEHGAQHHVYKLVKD
Experimental: as §1

[2] = target: TEAD3 TAZ (amino acids 13-57) (Homo sapiens, UniProt Q99594); test: TEAD3-TAZ HTRF (TR-FRET) protein-protein interaction assay; conditions: for TEAD3 TAZ HTRF combined: Max % Inhibition: TEAD3, TAZ peptide; for EC50: TEAD3-TAZ HTRF, TR-FRET 665 nm/615 nm, read-out: TEAD3 TAZ HTRF combined: EC50
Sequence of TEAD3 TAZ (amino acids 13-57) (Q99594 173-435 limits assumed): as above
Experimental: as §1

[3] = target: TEAD4 TAZ (amino acids 13-57) (Homo sapiens, UniProt Q15561); test: TEAD4-TAZ HTRF (TR-FRET) protein-protein interaction assay; conditions: for TEAD4 TAZ HTRF combined: Max % Inhibition: TEAD4, TAZ peptide; for EC50: TEAD4-TAZ HTRF, TR-FRET 665 nm/615 nm, read-out: TEAD4 TAZ HTRF combined: EC50
Sequence of TEAD4 TAZ (amino acids 13-57) (Q15561 217-434 limits assumed): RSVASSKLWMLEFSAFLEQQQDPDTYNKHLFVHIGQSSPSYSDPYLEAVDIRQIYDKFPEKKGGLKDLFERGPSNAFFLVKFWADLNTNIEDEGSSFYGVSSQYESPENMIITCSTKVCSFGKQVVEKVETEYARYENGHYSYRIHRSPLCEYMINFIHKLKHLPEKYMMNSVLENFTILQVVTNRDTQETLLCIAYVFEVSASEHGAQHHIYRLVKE
Experimental: as §1

[4] = target: TEAD1 TAZ (amino acids 13-57) (Homo sapiens, UniProt P28347); test: TEAD1-TAZ HTRF (TR-FRET) protein-protein interaction assay; conditions: for TEAD1 TAZ HTRF combined: Max % Inhibition: TEAD1, TAZ peptide; for EC50: TEAD1-TAZ HTRF, TR-FRET 665 nm/615 nm, read-out: TEAD1 TAZ HTRF combined: EC50
Sequence of TEAD1 TAZ (amino acids 13-57) (P28347 167-426 limits assumed): as the sequence (P28347 167-426 limits assumed) above
Experimental: as §1

TEAD4 YAP50-100 = TEAD4 YAP50-100 (Homo sapiens, UniProt Q15561); test: TEAD4-YAP HTRF (TR-FRET) protein-protein interaction assay; conditions: TEAD4, YAP peptide 50-100, HTRF; for EC50: read-out: TEAD4 YAP50-100 HTRF combined: EC50
Sequence of TEAD4 YAP50-100 (Q15561 217-434 limits assumed): as the sequence (Q15561 217-434 limits assumed) above
Experimental: as §1

TEAD2 YAP50-100 = TEAD2 YAP50-100 (Homo sapiens, UniProt Q15562); test: TEAD2-YAP HTRF (TR-FRET) protein-protein interaction assay; conditions: TEAD2, YAP peptide 50-100, HTRF; for EC50: read-out: TEAD2 YAP50-100 HTRF combined: EC50
Sequence of TEAD2 YAP50-100 (Q15562 217-447): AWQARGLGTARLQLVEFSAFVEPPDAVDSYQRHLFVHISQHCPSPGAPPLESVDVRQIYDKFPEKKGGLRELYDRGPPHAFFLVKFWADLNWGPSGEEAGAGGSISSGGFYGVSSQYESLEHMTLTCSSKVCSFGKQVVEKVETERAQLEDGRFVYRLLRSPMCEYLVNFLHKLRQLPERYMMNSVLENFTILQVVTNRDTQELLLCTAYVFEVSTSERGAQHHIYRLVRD
Experimental: as §1

Sequence of TEAD2 TAZ (amino acids 13-57) (Q15562 217-447): as above

SMILES | TEAD2 TAZ HTRF combined: Max % Inhibition [1] [%] | EC50 [1] [nM] | TEAD1 YAP50-100 HTRF combined: Max % Inhibition (TEAD1 YAP50-100) [%] | EC50 (TEAD1 YAP50-100) [nM] | TEAD3 YAP50-100 HTRF combined: Max % Inhibition (TEAD3 YAP50-100) [%] | EC50 (TEAD3 YAP50-100) [nM] | TEAD3 TAZ HTRF combined: Max % Inhibition [2] [%] | EC50 [2] [nM] | TEAD4 TAZ HTRF combined: Max % Inhibition [3] [%] | EC50 [3] [nM] | TEAD1 TAZ HTRF combined: Max % Inhibition [4] [%] | EC50 [4] [nM] | TEAD4 YAP50-100 HTRF combined: Max % Inhibition (TEAD4 YAP50-100) [%] | EC50 (TEAD4 YAP50-100) [nM] | TEAD2 YAP50-100 HTRF combined: Max % Inhibition (TEAD2 YAP50-100) [%] | EC50 (TEAD2 YAP50-100) [nM]
C[C@@H](CO)c1nn2c(=O)cc(-c3ccc(C4CCCCC4)cc3)[nH]c2c1C(=O)N1CC(CF)C1 (single isomer, unassigned) [Enantiomer B, Example 55] | 57.0 | 20 | 71.0 | 80 | 61.5 | 80 | 53.5 | 100 | 27.0 | 140 | 45.5 | 90 | 36.5 | 200 | 64.0 | 10
O=C(c1c(-c2nccc(C(F)(F)F)n2)nn2c(=O)cc(-c3ccc(C4CCCCC4)cc3)[nH]c12)N1CC(CF)C1 [Compound 11, 5-(4-Cyclohexylphenyl)-3-(3-(fluoromethyl)azetidine-1-carbonyl)-2-(4-(trifluoromethyl)pyrimidin-2-yl)pyrazolo[1,5-a]pyrimidin-7(4H)-one] | 63.0 | 20 | 74.0 | 70 | 68.5 | 120 | 61.0 | 120 | 48.5 | 860 | 69.0 | 70 | 48.0 | 1050 | 63.5 | 20
CN(C)C(=O)c1nn2c(=O)cc(-c3ccc(CC4CCCC4)cc3)[nH]c2c1C(=O)N1CC(CF)C1 [Compound 2, 5-(4-(Cyclopentylmethyl)phenyl)-3-(3-(fluoromethyl)azetidine-1-carbonyl)-N,N-dimethyl-7-oxo-4,7-dihydropyrazolo[1,5-a]pyrimidine-2-carboxamide] | 66.5 | 10 | 62.0 | 60 | 60.5 | 120 | 44.0 | 120 | 42.0 | 330 | 47.0 | 70 | 51.5 | 470 | 68.0 | 10
O=C(c1c(C2CNCCO2)nn2c(=O)cc(-c3ccc(C4CCCCC4)cc3)[nH]c12)N1CC(CF)C1 (single isomer, unassigned) [Enantiomer A, Example 63, 5-(4-Cyclohexylphenyl)-3-[3-(fluoromethyl)azetidine-1-carbonyl]-2-morpholin-2-yl-4H-pyrazolo[1,5-a]pyrimidin-7-one] | 66.0 | 40 | 66.0 | 140 | 62.0 | 180 | 55.5 | 200 | 30.5 | 1550 | 55.5 | 130 | 40.0 | 1600 | 66.0 | 40
O=C(c1c(-c2cnco2)nn2c(=O)cc(-c3ccc(C4CCCCC4)cc3)[nH]c12)N1CC(CF)C1 [Compound 39, 5-(4-Cyclohexylphenyl)-3-(3-(fluoromethyl)azetidine-1-carbonyl)-2-(oxazol-5-yl)pyrazolo[1,5-a]pyrimidin-7(4H)-one] | 56.5 | 20 | 65.0 | 50 | 61.5 | 60 | 53.5 | 60 | 18.0 | 370 | 37.5 | 90 | 34.5 | 650 | 62.0 | 20
O=C(c1nn2c(=O)cc(-c3ccc(C4CCCCC4)cc3)[nH]c2c1C(=O)N1CC(CF)C1)N1CCCC1 [Compound 36, 5-(4-Cyclohexylphenyl)-3-(3-(fluoromethyl)azetidine-1-carbonyl)-2-(pyrrolidine-1-carbonyl)pyrazolo[1,5-a]pyrimidin-7(4H)-one] | 73.5 | 20 | 70.0 | 70 | 71.0 | 180 | 60.0 | 200 | 38.0 | 850 | 60.5 | 80 | 48.0 | 1020 | 73.5 | 20
